Molecules are shown by their SMILES.

The record followed here is patent US20080311657A1, “Killing Human Lymphoma and Leukemia Cancer Cells and Tcr-Activated Normal Human Cells By Dopamine D1r Agonists” (priority 2005, published 2008).

Type in all cases: cell-based
Data set [1] deals with Human T-cell leukemia (Jurkat) cells. The experiment in a line: Number of living cells counted by flow cytometry (FACSort) after D1R agonist. Particulars: 10^−3M-10^−6M, 3 days. The protocol: Afterwards, the microtiter plates were placed in an incubator (37° C., humidified incubator, 5% CO2) for 3 days. Then, the number of living cells was evaluated by flow cytometry (the cells were counted by FACsort for a fixed time length of 1 min, in which 100 microliter of each sample was tested). Of note, A 77636 hydrochloride is an orally-active D1R agonist, according to the manufacturer (Tocris).
(§1) Afterwards, the microtiter plates were placed in an incubator (37° C., humidified incubator, 5% CO2) for 3 days. Then, the number of living cells was evaluated by flow cytometry (the cells were counted by FACsort for a fixed time length of 1 min, in which 100 microliter of each sample was tested).
(§2) The experiment was designed to test the effect of exposing the cells to the D1R agonist for 1 min, 15 min, 1 hr or 72 hr. Thus, 1 min, or 15 min or 1 hr after the addition of the D1R agonist, the corresponding cells were transferred into tubes, centrifuged (1000 rpm for 10 min); and the supernatant was removed. […] Thus, its medium was not replaced, and these cells and remained as such in the incubator for 72 hr. At the end of the 72 hr incubation, the number of living cells was evaluated by flow cytometry (the cells were counted by FACsort for a fixed time length of 1 min, in which 100 microliter of each sample was tested).
(§3) Cell viability was tested afterwards.
(§4) For this purpose, the Jurkat T-cell leukemia line, the HuT-78 human T-lymphoma (cutaneous “Sezary” T-lymphoma) line, and the K-562 human Chronic-Myeloid Leukemia (CML) and Daudi Human B-lymphoma (Burkitt's lymphoma) lines were seeded in tissue culture wells (0.5 million cells/0.5 ml/well).
(§5) Cell survival/death was evaluated 3 days later by counting the number of living cells, using flow cytometry.
For orientation: In flow cytometry, cells or beads pass a laser one at a time.

Data set [2] concerns Human cutaneous Sezary T-lymphoma cells (HuT-78). The description is as above. The conditions noted are these: 10^−3M-10^−6M, 3 days. As for the experimental part: (§6) Human cutaneous Sezary T-lymphoma cells (HUT-78) were seeded in 96 well plates (0.5 ml per well of 0.5 million cells/ml) and A 77636 hydrochloride was added and diluted 1:00 into the wells at starting concentrations of 10^−1M-10^−4M, so that the final concentration range tested was 10^−3M-10^−6M. Afterwards, the microtiter plates were placed in an incubator (37° C., humidified incubator, 5% CO2) for 3 days. Then, the number of living cells was evaluated by flow cytometry (the cells were counted by FACsort for a fixed time length of 1 min, in which 100 microliter of each sample was tested).
(§7) Human cutaneous Sezary T-lymphoma cells (HUT-78) were seeded in 96 well plates (0.5 ml per well of 0.5 million cells/ml) and A 68930 hydrochloride was added and diluted 1:00 into the wells at starting concentrations of 10^−1M-10^−4M, so that the final concentration range tested was 10^−3M-10^−6M. Afterwards, the microtiter plates were placed in an incubator (37° C., humidified incubator, 5% CO2) for 3 days. Then, the number of living cells was evaluated by flow cytometry (the cells were counted by FACsort for a fixed time length of 1 min, in which 100 microliter of each sample was tested).
(§8) Human cutaneous Sezary T-lymphoma cells (HUT-78) were seeded in 96 well plates (0.5 ml per well of 0.5 million cells/ml) and SKF 38393 hydrobromide was added and diluted 1:00 into the wells at starting concentrations of 10^−1M-10^−4M, so that the final concentration range tested was 10^−3M-10^−6M. Afterwards, the microtiter plates were placed in an incubator (37° C., humidified incubator, 5% CO2) for 3 days. Then, the number of living cells was evaluated by flow cytometry (the cells were counted by FACsort for a fixed time length of 1 min, in which 100 microliter of each sample was tested).
Cell viability was tested afterwards. […]
as §5

In data set [3] the test system is Human chronic myelogenous leukemia cells (CML) (K-562). Described as above. Particulars: for No. of Cells: 1 × 10^−4M; for No. of Cells / Killing, in words (Table 6): 1 hour; for Killing, in words (Table 6): 10^−4 M. As for the experimental part:
as §6, with “chronic myelogenous leukemia” for “cutaneous Sezary T-lymphoma”, “(CML) (K-562)” for “(HUT-78)”
as §7, with “chronic myelogenous leukemia” for “cutaneous Sezary T-lymphoma”, “(CML) (K-562)” for “(HUT-78)”
as §8, with “chronic myelogenous leukemia” for “cutaneous Sezary T-lymphoma”, “(CML) (K-562)” for “(HUT-78)”
as §2, with “Human chronic myelogenous leukemia cells (CML) (K-562) were seeded in 96 well plates (0.5 ml per well of 0.5 million cells/ml) and A 77636 hydrochloride was added and diluted 1:00 into the wells, at a fixed starting concentration of 10^−2M, so that the final concentration tested was 10^−4M. The” for “The”, “min),” for “min);”
as §3, §4, §5
(§9) The effect of dopamine itself (that can of course activate all its D1R-5 receptors) was also tested. All of these molecules were tested at a similar concentration (10^−4 M). […] The specificity and restriction of the effect to the D1R is also seen in Tables 7 and 8.

Data set [4] has as its system Human Burkitt's B-lymphoma cells (Daudi). The data set is described as above. The conditions noted are these: for No. of Cells: 1 × 10^−4M; for No. of Cells / Killing, in words (Table 5): 1 hour; for Killing, in words (Table 5): 10^−4 M. The protocol:
Human Burkitt's B-lymphoma cells (Daudi) were seeded in 96 well plates (0.5 ml per well of 0.5 million cells/ml) and A 77636 hydrochloride was added and diluted 1:00 into the wells at starting concentrations of 10^−1M-10^−4M, so that the final concentration range tested was 10^−3M-10^−6M. […] Then, the number of living cells was evaluated by flow cytometry (the cells were counted by FACsort for a fixed time length of 1 min, in which 100 microliter of each sample was tested).
Human Burkitt's B-lymphoma cells (Daudi) were seeded in 96 well plates (0.5 ml per well of 0.5 million cells/ml) and A 68930 hydrochloride was added and diluted 1:00 into the wells at starting concentrations of 10^−1M-10^−4M, so that the final concentration range tested was 10^−3M-10^−6M. […] Then, the number of living cells was evaluated by flow cytometry (the cells were counted by FACsort for a fixed time length of 1 min, in which 100 microliter of each sample was tested).
[…] Then, the number of living cells was evaluated by flow cytometry (the cells were counted by FACsort for a fixed time length of 1 min, in which 100 microliter of each sample was tested).
as §3, §9

Data set [5] concerns resting normal human T-cells. The description is as above. Particulars: 10^−3M-10^−6M, 3 days. The protocol: as §1
FIGS. 31A and B are graphs showing that A 77636 hydrochloride kills much more TCR-activated (FIG. 31B) than resting normal (FIG. 31A) human T-cells. […] The cells were then transferred to the incubator for 72 hr incubation. At the end of the 72 hr incubation, the number of living cells in each well was evaluated by flow cytometry (the cells were counted by FACsort for a fixed time length of 1 min, in which 100 microliter of each sample was tested).
as §3

Data set [6] concerns Human Burkitt's B-cell lymphoma (Raji) cells. The data set is described as above. The conditions noted are these: 10^−3M-10^−6M, 3 days. The protocol:
as §1, §3

Data set [7] deals with Human T-Cell Leukemia (Jurat) Cells. Put plainly: Cell number, necrosis and apoptosis by Annexin V/PI flow cytometry. The conditions noted are these: 1 × 10^−4M, exposed for 1 hr; for % Necrotic Cells: Annexin V+ PI+; for % Apoptotic Cells: Annexin V+ PI−. As for the experimental part: (§10) Measurement of cell death by flow cytometry and detection of phosphatidyl serine was performed using the IQ Products kit (R&D systems), according to the manufacturers instructions.
(§11) In detail: The Phosphatidyl Serine Detection kit provides a rapid and reliable method for the detection of apoptosis by flow cytometry. This method enables detection at the single-cell level, and also allows the distinction between apoptosis and necrosis.
(§12) During the early stages of apoptosis, phosphatidyl serine (PS) becomes exposed on the outside of the cell membrane. This early stage of apoptosis can be specifically detected by PS binding proteins (Annexin V).
(§13) During the early stages of apoptosis, the cell membrane is intact and the cells exclude propidium iodide (PI). Later, during the apoptosis process, the membrane becomes porous and PI becomes associated with DNA. The uptake of PI is an indication of necrosis.
as §9
(§14) Cancer death induced by selective D1R agonists occurs via necrosis. To study the mechanism by which the cancer cells die, due to their incubation with DR1 agonists, the phosphatidyl serine detection kit was used. This kit provides a rapid and reliable method for the detection of apoptosis by flow cytometry, enables detection at the single-cell level, and also allows the distinction between apoptosis and necrosis.
(§15) During the early stages of apoptosis, phosphatidyl serine (PS) becomes exposed on the outside of the cell membrane. This early stage of apoptosis can be specifically detected by PS binding proteins (Annexin V). During the early stages of apoptosis, the cell membrane is intact and the cells exclude propidium iodide (PI). Later, during the apoptosis process, the membrane becomes porous and PI becomes associated with DNA. The uptake of PI is an indication of necrosis. Thus, Annexin V^+ PI^− are considered cells that are undergoing apoptosis, while Annexin V^+ PI^+ are considered cells that are undergoing necrosis. Live cells are Annexin V^− PI^−.

The subject of data set [8] is Human Sezary T-Cell Lymphoma (HuT 78) Cells. Described as above. The conditions noted are these: 1 × 10^−4M, exposed for 1 hr; for % Necrotic Cells: Annexin V+ PI+; for % Apoptotic Cells: Annexin V+ PI−. The protocol: as §10, §11, §12, §13, §9, §14, §15

For the compound `Cl.NC[C@@H]1O[C@H](c2ccccc2)Cc2c1ccc(O)c2O` (racemic) [A 68930 hydrochloride, cis-(±)-1-(aminomethyl)-3,4-dihydro-3-phenyl-1H-2-benzopyran-5,6-diol hydrochloride], the “Cell death by number of living cells (FIGS. 10-12), in words” value in data set [1] is “induces marked cell death”. For the same compound, in data set [2], the “Cell death by number of living cells (FIGS. 13-15), in words” value is recorded as “induces marked cell death”. Besides, in data set [3] (10^−3M-10^−6M, 3 days), the “Cell death by number of living cells (FIGS. 22-24), in words” value was “induces marked cell death”. Further, in data set [4] (10^−3M-10^−6M, 3 days), the “Cell death by number of living cells (FIGS. 16-18), in words” value is recorded as “induces marked cell death”. Further, the “Killing effect by number of living cells (FIGS. 25-27), in words” value in data set [5] is listed as “significantly milder killing effect”. Moreover, the “Cell death by number of living cells (FIGS. 19-21), in words” value in data set [6] is “induces marked cell death”.
Consider `CCCN(CCC)C1CCc2ccc(O)cc2C1` (stereo not drawn) [D3R Agonist, 7-Hydroxy-DPAT], for which, in data set [7], the “No. of Cells” value is on record as 9,300, the “% Necrotic Cells” value was 10.27% and the “% Apoptotic Cells” value is given as 1.68%. In addition, in data set [8], the “No. of Cells” value is 18,975, the “% Necrotic Cells” value is 21.40% and the “% Apoptotic Cells” value is listed as 14.67%. In addition, in data set [3], the “No. of Cells” value is on record as 21,960 and the “Killing, in words (Table 6)” value is reported as “no such effect”. In data set [4], the “No. of Cells” value was 18,330 and the “Killing, in words (Table 5)” value is given as “no such effect”.
For the compound `NCCc1ccc(O)c(O)c1` [Dopamine], in data set [7], the “No. of Cells” value is given as 4,545, the “% Necrotic Cells” value stood at 42.84% and the “% Apoptotic Cells” value came out at 7.06%. For the same compound, in data set [8], the “No. of Cells” value was 16,395, the “% Necrotic Cells” value stood at 39.80% and the “% Apoptotic Cells” value amounted to 19.07%. In data set [3], the “No. of Cells” value is listed as 24,480 and the “Killing, in words (Table 6)” value is on record as “not the CML”. Moreover, in data set [4], the “No. of Cells” value is recorded as 5,325 and the “Killing, in words (Table 5)” value is “killed the B-lymphoma cells”.
Take `CCCN1CCC[C@@H]2Cc3n[nH]cc3C[C@H]21` [D2R Agonist, Quinpirole]: in data set [7], the “No. of Cells” value is listed as 7,395, the “% Necrotic Cells” value was found to be 7.65% and the “% Apoptotic Cells” value is 1.38%. Besides, in data set [8], the “No. of Cells” value is 23,880, the “% Necrotic Cells” value came to 21.97% and the “% Apoptotic Cells” value stood at 12.00%. Besides, in data set [3], the “No. of Cells” value is given as 27,360 and the “Killing, in words (Table 6)” value was “no such effect”. In data set [4], the “No. of Cells” value was 20,805 and the “Killing, in words (Table 5)” value is reported as “no such effect”.
